Experimental data as given in patent US12649722B2, “Herbicidal cinnoline derivatives” (SYNGENTA CROP PROTECTION AG, priority 2020, dated 2026).

How the values were obtained:
Assay type in all cases: in vivo
[1] = system: Ipornoea hederacea (IPOHE); experiment: Pre-emergence Test, IPOHE; conditions: 1000 g/ha, evaluated after 13 days
[2] = system: Amaranthus retoflexus (AMARE); experiment: Pre-emergence Test, AMARE; conditions: 1000 g/ha, evaluated after 13 days
[3] = system: ZEAMX; experiment: Pre-emergence Test, ZEAMX; conditions: 1000 g/ha, evaluated after 13 days
[4] = system: ZEAMX; experiment: Post-emergence Test, ZEAMX; conditions: sprayed after 8 days cultivation, 1000 g/ha, evaluated after 13 days
Procedure: [The procedure below names another target; the source lists this target under the same test.] (§1) Seeds of a variety of test species are sown in standard soil in pots (Amaranthus retoflexus (AMARE), Solarium nigrum (SOLNI), Setaria faberi (SETFA), Lolium perenne (LOLPE), Echinochloa crus-galli (ECHCG), Ipornoea hederacea (IPOHE)). After 8 days cultivation under controlled conditions in a glasshouse (at 24° C./16° C., day/night; 14 hours light; 65% humidity), the plants are sprayed with an aqueous spray solution derived from the formulation of the technical active ingredient in acetone/water (50:50) solution containing 0.5% Tween 20 (polyoxyethylene sorbitan monolaurate, CAS RN 9005-64-5). Compounds are applied at 1000 g/ha unless otherwise stated. The test plants are then grown in a glasshouse under controlled conditions in a glasshouse (at 24° C./16° C., day/night; 14 hours light; 65% humidity) and watered twice daily. After 13 days the test is evaluated for the percentage damage caused to the plant. The biological activities are shown in the following table on a five-point scale (5=81-100%; 4=61-80%; 3=41-60%; 2=21-40%; 1=10-20%; 0=0%; −=not tested).

[5] = system: Setaria faberi (SETFA); experiment: Post-emergence Test, SETFA; conditions: sprayed after 8 days cultivation, 1000 g/ha, evaluated after 13 days
Procedure: as §1

[6] = system: ABUTH; experiment: Pre-emergence Test, ABUTH; conditions: 1000 g/ha, evaluated after 13 days
[7] = system: ABUTH; experiment: Post-emergence Test, ABUTH; conditions: sprayed after 8 days cultivation, 1000 g/ha, evaluated after 13 days
Procedure: [The procedure below names another target; the source lists this target under the same test.] as §1

[8] = system: Amaranthus retoflexus (AMARE); experiment: Post-emergence Test, AMARE; conditions: sprayed after 8 days cultivation, 1000 g/ha, evaluated after 13 days
Procedure: as §1

[9] = system: Setaria faberi (SETFA); experiment: Pre-emergence Test, SETFA; conditions: 1000 g/ha, evaluated after 13 days
[10] = system: Ipornoea hederacea (IPOHE); experiment: Post-emergence Test, IPOHE; conditions: sprayed after 8 days cultivation, 1000 g/ha, evaluated after 13 days
Procedure: as §1

[11] = system: Echinochloa crus-galli (ECHCG); experiment: Pre-emergence Test, ECHCG; conditions: 1000 g/ha, evaluated after 13 days
[12] = system: Echinochloa crus-galli (ECHCG); experiment: Post-emergence Test, ECHCG; conditions: sprayed after 8 days cultivation, 1000 g/ha, evaluated after 13 days
Procedure: as §1

SMILES | percentage damage caused to the plant, IPOHE [1] | percentage damage caused to the plant, AMARE [2] | percentage damage caused to the plant, ZEAMX [3] | percentage damage caused to the plant, ZEAMX [4] | percentage damage caused to the plant, SETFA [5] | percentage damage caused to the plant, ABUTH [6] | percentage damage caused to the plant, ABUTH [7] | percentage damage caused to the plant, AMARE [8] | percentage damage caused to the plant, SETFA [9] | percentage damage caused to the plant, IPOHE [10] | percentage damage caused to the plant, ECHCG [11] | percentage damage caused to the plant, ECHCG [12]
CCOC(=O)c1nn(-c2ccc(OC(F)(F)F)cc2)c2cccc(N3CCOCC3)c2c1=O [Compound P26, ethyl 5-morpholino-4-oxo-1-[4-(trifluoromethoxy)phenyl] cinnoline-3-carboxylate] | 0 (0=0%) | 0 (0=0%) | 0 (0=0%) | 0 (0=0%) | 0 (0=0%) | 0 (0=0%) | 0 (0=0%) | 0 (0=0%) | 0 (0=0%) | 0 (0=0%) | 0 (0=0%) | 1 (1=10-20%)
CCOC(=O)c1nn(-c2ccc(OC(F)(F)F)cc2)c2cccc(-n3ncc(C(F)(F)F)n3)c2c1=O [Compound P34, ethyl 4-oxo-1-[4-(trifluoromethoxy)phenyl]-5-[4-(trifluoromethyl)triazol-2-yl]cinnoline-3-carboxylate] | 0 (0=0%) | 0 (0=0%) | 2 (2=21-40%) | 0 (0=0%) | 0 (0=0%) | 0 (0=0%) | 0 (0=0%) | 0 (0=0%) | 0 (0=0%) | 0 (0=0%) | 0 (0=0%) | 0 (0=0%)
CCOC(=O)c1nn(-c2ccc(OC(F)(F)F)cc2)c2cccc(-n3cc(Cl)cn3)c2c1=O [Compound P32, ethyl 5-(4-chloropyrazol-1-yl)-4-oxo-1-[4-(trifluoromethoxy)phenyl] cinnoline-3-carboxylate] | 0 (0=0%) | 2 (2=21-40%) | 2 (2=21-40%) | 1 (1=10-20%) | 3 (3=41-60%) | 2 (2=21-40%) | 1 (1=10-20%) | 1 (1=10-20%) | 4 (4=61-80%) | 1 (1=10-20%) | 4 (4=61-80%) | 3 (3=41-60%)
CCOC(=O)c1nn(-c2ccc(OC(F)(F)F)cc2)c2cccc(-n3cc(C(F)(F)F)nn3)c2c1=O [Compound P33, ethyl 4-oxo-1-[4-(trifluoromethoxy)phenyl]-5-[4-(trifluoromethyl)triazol-1-yl]cinnoline-3-carboxylate] | 0 (0=0%) | 0 (0=0%) | 1 (1=10-20%) | 0 (0=0%) | 0 (0=0%) | 0 (0=0%) | 0 (0=0%) | 0 (0=0%) | 0 (0=0%) | 0 (0=0%) | 0 (0=0%) | 0 (0=0%)
CCOC(=O)c1nn(-c2ccc(OC(F)(F)F)cc2)c2cccc(C(C)=O)c2c1=O [Compound P30, ethyl 5-acetyl-4-oxo-1-[4-(trifluoromethoxy)phenyl] cinnoline-3-carboxylate] | 1 (1=10-20%) | 1 (1=10-20%) | 4 (4=61-80%) | 3 (3=41-60%) | 4 (4=61-80%) | 2 (2=21-40%) | 3 (3=41-60%) | 1 (1=10-20%) | 5 (5=81-100%) | 2 (2=21-40%) | 4 (4=61-80%) | 4 (4=61-80%)
